Source: patent publication US20100267561A1, “HERBICIDAL PYRIDAZINONE DERIVATIVES” (priority 2007, published 2010)

Experiments:
Experiment in all cases: Test B pre-/postemergence plant response
Assay type in all cases: in vivo
[1] = system: blackgrass (Alopecurus myosuroides)
In short: (§1)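 Visual scoring from 0 (no effect) to 100 (complete control) against untreated controls was done 13 to 15 days after greenhouse treatment. Chemicals were formulated in a surfactant-containing non-phytotoxic solvent and applied to soil preemergence or to 1- to 4-leaf (2-18 cm) plants postemergence.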

[2] = system: catchweed bedstraw (Galium aparine); settings: Preemergence, scale 0 to 100
In short: as §1

[3] = system: common (oilseed) sunflower (Helianthus annuus); settings: Preemergence
In short: as §1

[4] = system: common ragweed (Ambrosia elation)
In short: as §1

[5] = system: corn (Zea mays)
In short: as §1

[6] = system: downy bromegrass (Bromus tectorum)
In short: as §1

[7] = system: giant foxtail (Setaria faberii)
In short: as §1

[8] = system: kochia (Kochia scoparia)
In short: as §1

[9] = system: lambsquarters (Chenopodium album)
In short: as §1

[10] = system: pigweed (Amaranthus retroflexus)
In short: as §1

[11] = system: velvetleaf (Abutilon theophrasti)
In short: as §1

[12] = system: wild oat (Avena fatua)
In short: as §1

[13] = system: woolly cupgrass (Eriochloa villosa)
In short: as §1

[14] = system: yellow nutsedge (Cyperus esculentus)
In short: as §1

[15] = Postemergence, 31 g ai/ha, scale 0 to 100, 0 no effect, 100 complete control
[16] = Postemergence, 62 g ai/ha, scale 0 to 100
[17] = Postemergence, 125 g ai/ha, scale 0 to 100
[18] = Postemergence, 250 g ai/ha, scale 0 to 100
[19] = Preemergence, 31 g ai/ha, 0 to 100 scale, 0 no effect, 100 complete control
[20] = Preemergence, 62 g ai/ha, scale 0 to 100
[21] = Preemergence, 125 g ai/ha, scale 0 to 100
[22] = Preemergence, 250 g ai/ha, scale 0 to 100

`Cc1cc(-c2ccc(Br)cc2)nn1-c1c(OC(=O)C2CC2)cnn(C)c1=O` [Compound 5] was tested, and the “Blackgrass plant response rating” value ([1]; 250 g ai/ha, preemergence, 0-100 scale) was 100, the “Plant response rating, Blackgrass” value [1, 15] was 95 and the “Plant response rating, Blackgrass” value [1, 16] was 100. For the same compound, the “Plant response rating, Blackgrass” value [1, 17] was 100, the “Plant response rating, Blackgrass” value [1, 18] was 100 and the “Plant response rating, Blackgrass” value [1, 19] was 100. The “Plant response rating, Blackgrass” value [1, 20] was 100, the “Plant response rating, Blackgrass” value [1, 21] was 100 and the “Plant response rating, Galium” value ([2]; 125 g ai/ha) was 80. For the same compound, the “Plant response rating, Galium” value ([2]; 250 g ai/ha) was 90, the “Plant response rating, Sunflower” value ([3]; 31 g ai/ha, 0 to 100 scale, 0 no effect, 100 complete control) was 0 and the “Plant response rating, Sunflower” value ([3]; 62 g ai/ha, scale 0 to 100) was 0. For the same compound, the “Plant response rating, Sunflower” value ([3]; 125 g ai/ha, scale 0 to 100) was 0, the “Plant response rating, Sunflower” value ([3]; 250 g ai/ha, scale 0 to 100) was 0 and the “Plant response rating, Ragweed” value [4, 15] was 0. For the same compound, the “Plant response rating, Ragweed” value [4, 16] was 0, the “Plant response rating, Ragweed” value [4, 17] was 60 and the “Plant response rating, Ragweed” value [4, 18] was 65. The “Plant response rating, Ragweed” value [4, 19] was 0, the “Plant response rating, Ragweed” value [4, 20] was 0 and the “Plant response rating, Ragweed” value [4, 21] was 0. The “Plant response rating, Ragweed” value [4, 22] was 10, the “Plant response rating, Corn” value [5, 15] was 90 and the “Plant response rating, Corn” value [5, 16] was 100. For the same compound, the “Plant response rating, Corn” value [5, 17] was 100, the “Plant response rating, Corn” value [5, 18] was 100 and the “Plant response rating, Corn” value [5, 19] was 95. The “Plant response rating, Corn” value [5, 20] was 95, the “Plant response rating, Corn” value [5, 21] was 98 and the “Plant response rating, Corn” value [5, 22] was 100. For the same compound, the “Plant response rating, Bromegrass, Downy” value [6, 15] was 5, the “Plant response rating, Bromegrass, Downy” value [6, 16] was 50 and the “Plant response rating, Bromegrass, Downy” value [6, 17] was 50. For the same compound, the “Plant response rating, Bromegrass, Downy” value [6, 19] was 40, the “Plant response rating, Bromegrass, Downy” value [6, 20] was 85 and the “Plant response rating, Bromegrass, Downy” value [6, 21] was 98. For the same compound, the “Plant response rating, Bromegrass, Downy” value ([6]; Preemergence, 250 g ai/ha, scale 0 to 100 (0 no effect, 100 complete control)) was 100, the “Plant response rating, Foxtail, Giant” value [7, 15] was 100 and the “Plant response rating, Foxtail, Giant” value [7, 16] was 100. The “Plant response rating, Foxtail, Giant” value [7, 17] was 100, the “Plant response rating, Foxtail, Giant” value [7, 18] was 100 and the “Plant response rating, Foxtail, Giant” value [7, 19] was 98. The “Plant response rating, Foxtail, Giant” value [7, 20] was 100, the “Plant response rating, Foxtail, Giant” value [7, 21] was 100 and the “Plant response rating, Foxtail, Giant” value [7, 22] was 100. For the same compound, the “Plant response rating, Kochia” value [8, 15] was 0, the “Plant response rating, Kochia” value [8, 16] was 0 and the “Plant response rating, Kochia” value [8, 17] was 0. For the same compound, the “Plant response rating, Kochia” value [8, 18] was 70, the “Plant response rating, Kochia” value [8, 20] was 50 and the “Plant response rating, Kochia” value [8, 21] was 50. For the same compound, the “Plant response rating, Kochia” value [8, 22] was 60, the “Plant response rating, Lambsquarters” value [9, 15] was 0 and the “Plant response rating, Lambsquarters” value [9, 16] was 20. For the same compound, the “Plant response rating, Lambsquarters” value [9, 17] was 80, the “Plant response rating, Lambsquarters” value [9, 18] was 80 and the “Plant response rating, Lambsquarters” value [9, 21] was 90. For the same compound, the “Plant response rating, Lambsquarters” value [9, 22] was 100, the “Plant response rating, Pigweed” value [10, 15] was 0 and the “Plant response rating, Pigweed” value [10, 16] was 0. For the same compound, the “Plant response rating, Pigweed” value [10, 17] was 45, the “Plant response rating, Pigweed” value [10, 18] was 45 and the “Plant response rating, Pigweed” value [10, 19] was 0. For the same compound, the “Plant response rating, Pigweed” value [10, 20] was 0, the “Plant response rating, Pigweed” value [10, 21] was 80 and the “Plant response rating, Pigweed” value [10, 22] was 100. For the same compound, the “Plant response rating, Velvetleaf” value [11, 15] was 0, the “Plant response rating, Velvetleaf” value [11, 16] was 0 and the “Plant response rating, Velvetleaf” value [11, 17] was 0. For the same compound, the “Plant response rating, Velvetleaf” value [11, 18] was 10, the “Plant response rating, Velvetleaf” value [11, 19] was 0 and the “Plant response rating, Velvetleaf” value [11, 20] was 0. For the same compound, the “Plant response rating, Velvetleaf” value [11, 21] was 0, the “Plant response rating, Velvetleaf” value [11, 22] was 0 and the “Plant response rating, Oat, Wild” value [12, 15] was 95. For the same compound, the “Plant response rating, Oat, Wild” value [12, 16] was 100, the “Plant response rating, Oat, Wild” value [12, 17] was 100 and the “Plant response rating, Oat, Wild” value [12, 18] was 100. For the same compound, the “Plant response rating, Oat, Wild” value [12, 19] was 30, the “Plant response rating, Oat, Wild” value [12, 20] was 70 and the “Plant response rating, Oat, Wild” value [12, 21] was 80. For the same compound, the “Plant response rating, Oat, Wild” value [12, 22] was 95, the “Plant response rating, Cupgrass, Woolly” value [13, 15] was 95 and the “Plant response rating, Cupgrass, Woolly” value [13, 16] was 100. The “Plant response rating, Cupgrass, Woolly” value [13, 17] was 100, the “Plant response rating, Cupgrass, Woolly” value [13, 18] was 100 and the “Plant response rating, Cupgrass, Woolly” value [13, 19] was 50. The “Plant response rating, Cupgrass, Woolly” value [13, 20] was 90, the “Plant response rating, Cupgrass, Woolly” value [13, 21] was 100 and the “Plant response rating, Cupgrass, Woolly” value [13, 22] was 100. The “Plant response rating, Nutsedge, Yellow” value [14, 15] was 0, the “Plant response rating, Nutsedge, Yellow” value [14, 16] was 0 and the “Plant response rating, Nutsedge, Yellow” value [14, 17] was 60. For the same compound, the “Plant response rating, Nutsedge, Yellow” value [14, 20] was 0 and the “Plant response rating, Nutsedge, Yellow” value [14, 21] was 0.
